ChEMBL document CHEMBL2424554, “Synthesis of new indazole derivatives as potential antioxidant agents” (Med Chem Res, 2013)

Tests used:
Type in all cases: functional
[1] = Antioxidant activity assessed as DPPH scavenging activity after 20 mins by spectrophotometry; design: concentration or dose not given beside the values
[2] = Antioxidant activity assessed as ascorbic acid equivalent antioxidant capacity per mg sample after 90 mins by phosphomolybdenum method
[3] = Antioxidant activity assessed as effective concentration for potassium ferric cyanide ion reducing power equivalent of 0.5 absorbance ellagic acid at 100 to 1000 ug/ml after 20 mins by FRAP assay

| Structure (SMILES) | Activity [1] [%] | Activity [2] [µM] | Activity [3] [mg/mL] |
| --- | --- | --- | --- |
| N[C@@H](CCC(=O)N[C@@H](CS)C(=O)NCC(=O)O)C(=O)O | 92.1 | – | – |
| O=c1c2c([nH]n1-c1ccc([N+](=O)[O-])cc1[N+](=O)[O-])C=C(c1ccc(F)cc1)CC2c1ccccc1 (stereo not drawn) | 4.21 | 16.2 | 3.26 |
| O=c1c2c([nH]n1-c1ccccc1)C=C(c1ccc(F)cc1)CC2c1ccc(Br)cc1 (stereo not drawn) | 96.8 | 1.97 | 0.802 |
| O=c1c2c([nH]n1-c1ccc([N+](=O)[O-])cc1)C=C(c1ccc(F)cc1)CC2c1ccc(Br)cc1 (stereo not drawn) | 85.3 | 0.58 | 0.64 |
| O=c1[nH][nH]c2c1C(c1ccc(Br)cc1)CC(c1ccc(F)cc1)=C2 (stereo not drawn) | 16.2 | 1.17 | 1.14 |
| O=c1oc2c(O)c(O)cc3c(=O)oc4c(O)c(O)cc1c4c23 | – | – | 0.105 |
| O=c1c2c([nH]n1-c1ccc([N+](=O)[O-])cc1[N+](=O)[O-])C=C(c1ccc(F)cc1)CC2c1ccc(Br)cc1 (stereo not drawn) | 2.34 | 4.69 | 0.76 |
| O=c1c2c([nH]n1-c1ccc([N+](=O)[O-])cc1[N+](=O)[O-])C=C(c1ccc(F)cc1)CC2c1ccc(Cl)cc1 (stereo not drawn) | 19.6 | 7.83 | 0.75 |
| O=c1c2c([nH]n1-c1ccc([N+](=O)[O-])cc1)C=C(c1ccc(F)cc1)CC2c1ccc(Cl)cc1 (stereo not drawn) | 84.4 | 6.22 | 0.95 |
| O=c1[nH][nH]c2c1C(c1ccccc1)CC(c1ccc(F)cc1)=C2 (stereo not drawn) | 19.8 | 4.75 | 0.63 |
| O=c1[nH][nH]c2c1C(c1ccc(Cl)cc1)CC(c1ccc(F)cc1)=C2 (stereo not drawn) | 17.9 | 8.4 | 1.2 |
| O=c1c2c([nH]n1-c1ccc([N+](=O)[O-])cc1)C=C(c1ccc(F)cc1)CC2c1ccccc1 (stereo not drawn) | 89.6 | 0.69 | 0.47 |
| O=c1c2c([nH]n1-c1ccccc1)C=C(c1ccc(F)cc1)CC2c1ccccc1 (stereo not drawn) | 90.2 | 3.95 | 1.95 |
| O=c1c2c([nH]n1-c1ccccc1)C=C(c1ccc(F)cc1)CC2c1ccc(Cl)cc1 (stereo not drawn) | 94 | 2.59 | 1.49 |
